# From patent publication US11453666B2, “Autotaxin inhibitory compounds” (Cancer Research Technology Limited, priority 2015, dated 2022)
# Target: human recombinant ATX (Homo sapiens, UniProt Q13822)
# Test: Autotaxin (ATX) activity Quanta Red assay
# Format: biochemical
# Conditions: Table 2: additional compounds tested for ATX activity (Quanta Red Assay); read-out: Activity
# Outline: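 Recombinant human ATX reaction stopped after 2 h with Quanta Red stop solution; fluorescence read at […]. Controls with DMSO, with and without ATX; IC50 in duplicate.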
row,IC50,Structure (SMILES)
1,23 nM,"COc1ccc(Cn2c(CCC(=O)NCc3ccc(Cl)cc3)nc3cccnc32)cc1 [Example 218, N-(4-Chloro-benzyl)-3-[3-(4-methoxy-benzyl)-3H-imidazo[4,5-b]pyridin-2-yl]-propionamide]"

# Same assay, conditions: human recombinant ATX 0.8 μg/mL, 2 hours at room temperature, IC50 determined in duplicate; read-out: Activity (ATX activity, Quanta Red assay; IC50)
row,Structure (SMILES),IC50
1,"C[C@H](NC(=O)CS(=O)(=O)c1nc2cccnc2n1Cc1ccc(OC(F)(F)F)cc1)c1ccc(F)cc1 [Example 150, N—[(S)-1-(4-fluoro-phenyl)-ethyl]-2-[3-(4-trifluoromethoxy-benzyl)-3H-imidazo[4,5-b]pyridine-2-sulfonyl]-acetamide]",2880 nM
2,"C[C@H](NC(=O)CCc1nc2ccncc2n1Cc1ccc(F)cc1)c1ccc(F)cc1 [Example 132, 3-[3-(4-Fluoro-benzyl)-3H-imidazo[4,5-c]pyridin-2-yl]-N-[(S)-1-(4-fluoro-phenyl)-ethyl]-propionamide]",52 nM

# Same assay, conditions: read-out: Activity (ATX activity, Quanta Red assay; IC50)
row,Structure (SMILES),IC50
1,"C[C@H](NC(=O)CCc1nc2cccnc2n1Cc1ccc(F)c(F)c1)c1ccccn1 [Example 72, 3-[3-(3,4-Difluoro-benzyl)-3H-imidazo[4,5-b]pyridin-2-yl]-N-((S)-1-pyridin-2-yl-ethyl)-propionamide]",247 nM
2,"COc1ccc(CNC(=O)CCc2nc3cc(F)cnc3n2Cc2ccccc2OC)cc1 [Example 101, 3-[6-Fluoro-3-(2-methoxy-benzyl)-3H-imidazo[4,5-b]pyridin-2-yl]-N-(4-methoxy-benzyl)-propionamide]",55 nM
3,"Cc1ccc2nc(CCC(=O)N[C@@H](C)c3ccc(Cl)cc3)n(Cc3ccc(F)cc3)c2n1 [Example 79, N-[(S)-1-(4-Chloro-phenyl)-ethyl]-3-[3-(4-fluoro-benzyl)-5-methyl-3H-imidazo[4,5-b]pyridin-2-yl]-propionamide]",94 nM
4,"O=C(CCc1nc2cccnc2n1Cc1ccc(OC(F)(F)F)cc1)NCC1CCN(C(=O)C2CC2)CC1 [Example 215, N-(1-Cyclopropanecarbonyl-piperidin-4-ylmethyl)-3-[3-(4-trifluoromethoxy-benzyl)-3H-imidazo[4,5-b]pyridin-2-yl]-propionamide]",81 nM
5,"C[C@@H](c1ccc(F)cc1)n1c(CCC(=O)N[C@H](Cc2ccccc2)C(=O)O)nc2cccnc21 [Example 201, (R)-2-(3-{3-[(S)-1-(4-Fluoro-phenyl)-ethyl]-3H-imidazo[4,5-b]pyridin-2-yl}-propionylamino)-3-phenyl-propionic acid]",598 nM
6,"CC(NC(=O)CCc1nc2cccnc2n1Cc1ccc(OC(F)(F)F)cc1)C1CCOCC1 (stereo not drawn) [Example 56, N-[1-(Tetrahydro-pyran-4-yl)-ethyl]-3-[3-(4-trifluoromethoxy-benzyl)-3H-imidazo[4,5-b]pyridin-2-yl]-propionamide]",45 nM
7,"COc1ccc(Cn2c(CCC(=O)NCc3ccc(F)c(F)c3)nc3cccnc32)cc1 [Example 107, N-(3,4-Difluoro-benzyl)-3-[3-(4-methoxy-benzyl)-3H-imidazo[4,5-b]pyridin-2-yl]-propionamide]",102 nM
8,"C[C@H](NC(=O)CCc1nc2cccnc2n1Cc1ccc(F)c(F)c1)c1ccc(N2CCNCC2)cc1 [Example 193, 3-[3-(3,4-Difluoro-benzyl)-3H-imidazo[4,5-b]pyridin-2-yl]-N-[(S)-1-(4-piperazin-1-yl-phenyl)-ethyl]-propionamide]",83 nM
9,"COc1ccc(CNC(=O)CCc2nc3cc(C)cnc3n2Cc2ccc(OC(F)(F)F)cc2)cc1 [Example 53, N-(4-Methoxy-benzyl)-3-[6-methyl-3-(4-trifluoromethoxy-benzyl)-3H-imidazo[4,5-b]pyridin-2-yl]-propionamide]",38 nM
10,"Cc1ccccc1CNC(=O)CCc1nc2cccnc2n1Cc1ccccc1 [Example 5, 3-(3-Benzyl-3H-imidazo[4,5-b]pyridin-2-yl)-N-(2-methyl-benzyl)-propionamide]",854 nM
11,"COc1ccc(Cn2c(CCC(=O)NC(C)C)nc3cccnc32)cc1 [Example 113, N-Isopropyl-3-[3-(4-methoxy-benzyl)-3H-imidazo[4,5-b]pyridin-2-yl]-propionamide]",1500 nM
12,"O=C(CCc1nc2cccnc2n1Cc1ccc(OC(F)(F)F)cc1)N[C@H](CO)Cc1ccccc1 [Example 204, N-((S)-1-Hydroxymethyl-2-phenyl-ethyl)-3-[3-(4-trifluoromethoxy-benzyl)-3H-imidazo[4,5-b]pyridin-2-yl]-propionamide]",89 nM
13,"C[C@H](NC(=O)CCc1nc2cc(Br)cnc2n1Cc1ccc(F)cc1)c1ccc(Cl)cc1 [Example 70, 3-[6-Bromo-3-(4-fluoro-benzyl)-3H-imidazo[4,5-b]pyridin-2-yl]-N-[(S)-1-(4-chloro-propionimide)]]",242 nM

# Next, values leading:
row,IC50,Structure (SMILES)
1,10 nM,"C[C@H](NC(=O)CCc1nc2cccnc2n1Cc1ccc(F)c(F)c1)c1ccc(N2CCCC2)cc1 [Example 183, 3-[3-(3,4-Difluoro-benzyl)-3H-imidazo[4,5-b]pyridin-2-yl]-N-[(S)-1-(4-pyrrolidin-1-yl-phenyl)-ethyl]-propionamide]"
2,2 nM,"C[C@@H]1CN(c2ccc([C@H](C)NC(=O)CCc3nc4cccnc4n3Cc3ccc(OC(F)(F)F)cc3)cc2)C[C@H](C)N1 [Example 171, N-{(S)-1-[4-((cis)-3,5-Dimethyl-piperazin-1-yl)-phenyl]-ethyl}-3-[3-(4-trifluoromethoxy-benzyl)-3H-imidazo[4,5-b]pyridin-2-yl]-propionamide]"
3,20 nM,"O=C(CCc1nc2ccncc2n1Cc1ccc(OC(F)(F)F)cc1)NCc1ccc(Cl)cc1 [Example 129, N-(4-Chloro-benzyl)-3-[3-(4-trifluoromethoxy-benzyl)-3H-imidazo[4,5-c]pyridin-2-yl]-propionamide]"
4,17 nM,"C[C@H](NC(=O)NCc1nc2cccnc2n1Cc1ccc(F)c(F)c1)c1ccc(Br)cc1 [Example 158, 1-[(S)-1-(4-Bromo-phenyl)-ethyl]-3-[3-(3,4-difluoro-benzyl)-3H-imidazo[4,5-b]pyridin-2-ylmethyl]-urea]"
5,17 nM,"Cc1cnc2c(c1)nc(CCC(=O)N[C@@H](C)c1ccc(Cl)cc1)n2Cc1ccc(F)cc1 [Example 213, N-[(S)-1-(4-Chloro-phenyl)-ethyl]-3-[3-(4-fluoro-benzyl)-6-methyl-3H-imidazo[4,5-b]pyridin-2-yl]-propionamide]"
6,8 nM,"CC[C@H](NC(=O)CCc1nc2cccnc2n1Cc1ccc(F)c(F)c1)c1ccccc1 [Example 89, 3-[3-(3,4-Difluoro-benzyl)-3H-imidazo[4,5-b]pyridin-2-yl]-N-((S)-1-phenyl-propyl)-propionamide]"
7,10 nM,"C[C@H](NC(=O)CCc1nc2cccnc2n1Cc1ccc(OC(F)(F)F)cc1)[C@H](O)c1ccccc1 [Example 41, N-((1S,2R)-2-Hydroxy-1-methyl-2-phenyl-ethyl)-3-[3-(4-trifluoromethoxy-benzyl)-3H-imidazo[4,5-b]pyridin-2-yl]-propionamide]"
8,29 nM,"COc1ccc(CNC(=O)CCc2nc3cc(C)cnc3n2Cc2ccc(OC(F)(F)F)cc2)cc1F [Example 52, N-(3-Fluoro-4-methoxy-benzyl)-3-[6-methyl-3-(4-trifluoromethoxy-benzyl)-3H-imidazo[4,5-b]pyridin-2-yl]-propionamide]"
9,7 nM,"O=C(CCc1nc2cccnc2n1Cc1ccc(OC(F)(F)F)cc1)NC[C@H](O)c1ccccc1 [Example 37, N-((R)-2-Hydroxy-2-phenyl-ethyl)-3-[3-(4-trifluoromethoxy-benzyl)-3H-imidazo[4,5-b]pyridin-2-yl]-propionamide]"
10,3 nM,"O=C(CCc1nc2ccncc2n1Cc1ccc(OC(F)(F)F)cc1)N[C@@H](CO)c1ccccc1 [Example 123, N-((R)-2-Hydroxy-1-phenyl-ethyl)-3-[3-(4-trifluoromethoxy-benzyl)-3H-imidazo[4,5-c]pyridin-2-yl]-propionamide]"
11,1 nM,"O=C(CCc1nc2cccnc2n1Cc1ccc(OC(F)(F)F)cc1)N[C@@H]1c2ccccc2C[C@H]1O [Example 9, N-((1R,2R)-2-Hydroxy-indan-1-yl)-3-[3-(4-trifluoromethoxy-benzyl)-3H-imidazo[4,5-b]pyridin-2-yl]-propionamide]"
12,5 nM,"O=C(CCc1nc2cccnc2n1Cc1ccc(F)cc1)N[C@@H](CO)c1ccccc1 [Example 28, 3-[3-(4-Fluoro-benzyl)-3H-imidazo[4,5-b]pyridin-2-yl]-N-((R)-2-hydroxy-1-phenyl-ethyl)-propionamide]"
13,7 nM,"O=C(CCc1nc2cccnc2n1Cc1ccc(F)c(F)c1)NC(CO)c1ccc(OC(F)(F)F)cc1 (stereo not drawn) [Example 39, 3-[3-(3,4-Difluoro-benzyl)-3H-imidazo[4,5-b]pyridin-2-yl]-N-[2-hydroxy-1-(4-trifluoromethoxy-phenyl)-ethyl]-propionamide]"
14,10 nM,"C[C@H](NC(=O)CCc1cc2cccnc2n1Cc1ccc(OC(F)(F)F)cc1)c1ccc(F)cc1 [Example 137, N—[(S)-1-(4-fluoro-phenyl)-ethyl]-3-[1-(4-trifluoromethoxy-benzyl)-1H-pyrrolo[2,3-b]pyridin-2-yl]-propionamide]"
15,3 nM,"C[C@H](NC(=O)CCc1nc2cccnc2n1Cc1ccc(OC(F)(F)F)cc1)c1ccc(N[C@H]2CCNC2)cc1 [Example 175, N-{(S)-1-[4-((S)-Pyrrolidin-3-ylamino)-phenyl]-ethyl}-3-[3-(4-trifluoromethoxy-benzyl)-3H-imidazo[4,5-b]pyridin-2-yl]-propionamide]"
16,4 nM,"Cc1cnc2c(c1)nc(CCC(=O)NCc1ccc(OCCCN(C)C)cc1)n2Cc1ccc(OC(F)(F)F)cc1 [Example 26, N-[4-(3-Dimethylamino-propoxy)-benzyl]-3-[6-methyl-3-(4-trifluoromethoxy-benzyl)-3H-imidazo[4,5-b]pyridin-2-yl]-propionamide]"
17,2 nM,"C[C@H](NC(=O)CCc1nc2cccnc2n1Cc1ccc(F)cc1)c1ccc(Br)cc1 [Example 83, N—[(S)-1-(4-bromo-phenyl)-ethyl]-3-[3-(4-fluoro-benzyl)-3H-imidazo[4,5-b]pyridin-2-yl]-propionamide]"
